Values quoted from earlier work, collected in patent US9662296B2, “Pharmaceutical composition comprising bicarbonate salt, and use thereof as a medicament in the treatment and/or prevention of urinary lithiases and related diseases” (ADVICENNE, priority 2010, dated 2017).

Settings: high doses (30 to 40 grams per day)

SMILES | adverse manifestations
O=C([O-])O.[K+] [potassium bicarbonate] | manifestations of metabolic alkalosis or digestive disorders, mainly diarrhoea
O=C([O-])O.[Na+] [sodium bicarbonate] | manifestations of metabolic alkalosis or digestive disorders, mainly diarrhoea
